Assay results reported in patent US20230226036A1, “ARIMOCLOMOL FOR TREATING GAUCHER DISEASE” (ORPHAZYME A/S, priority 2020, published 2023).
“Also recorded” adds a separate entry of the source.

Legend:
[1] = Plasma exposure (AUC0-8) estimated by population PK modelling in GD1/GD3 patients; type: in vivo, human; details: 300, 600, 1200 mg/day t.i.d. oral (weight-adjusted), FIG. 1
Description: All patients underwent an arimoclomol single-dose (100-mg single dose for the 300-mg/day treatment group, 200-mg single dose for the arimoclomol 600-mg/day treatment group, 400-mg single dose for the arimoclomol 1200-mg/day treatment group, or corresponding dose per kg for paediatric patients prior to the effective date of this protocol. Single dose pharmacokinetics (PK) was done with corresponding dose per kg for all patients randomised after the effective date of this protocol) pharmacokinetic (PK) evaluation at Visit 2 following randomization to confirm the suitability (in terms of target investigational medicinal product (AUC0-8—area under the curve [AUC] from time 0 to 8 hours [AUC0-8]) of the selected doses in the trial. Following the single dose, blood samples for PK analysis were collected at predose, and 0.5, 1, 2, 4, and 8 hours postdose. […] The corresponding data was evaluated by an independent assessor to verify the AUC0-8. […]
In the event that the AUC was above the target, or an unexpected profile which could potentially impact the safety of the patient was obtained, and the patient required a dose reduction, the patient was dispensed a reduced dose of IMP (blinded) at Visit 3. […] Additional blood samples for quantitative population PK analysis of arimoclomol were collected predose and at 0.5 hours postdose at Visit 5, and predose and 1.5 hours postdose at Visit 7. […]

[2] = test system: serum chitotriosidase activity; assay: Serum chitotriosidase activity, phase 2 trial in Gaucher disease type 1 or 3 (primary endpoint); type: in vivo, human; details: for Relative change in chitotriosidase activity from baseline versus placebo: 6 months, all dosage groups, significance not achieved (p=0.4), FIG. 2
Protocol: This is a placebo-controlled, randomised, double-blinded trial evaluating the response of 3 dose levels of arimoclomol on various pharmacodynamic (PD) biomarkers in blood and cerebrospinal fluid (CSF) as indicators of enhanced glucocerebrosidase (GBA) enzyme activity in GD1 and GD3.
(§1) Eligible GD1 and GD3 patients were randomised into 4 groups on a 1:1:1:1 basis to receive arimoclomol 300 mg/day, arimoclomol 600 mg/day, arimoclomol 1200 mg/day, or placebo treatment (3 times daily [t.i.d] dosing).
The primary efficacy endpoint of the trial was the percentage change in serum chitotriosidase activity (marker of macrophage activation) from baseline to 6 months, where baseline was defined as the mean value of the predose visits (Visit 1 and Visit 2).
The primary efficacy endpoint was analysed using an Analysis of Covariance (ANCOVA) model on the ITT population. The log of chitotriosidase activity was used in the analysis. The response variable for ANCOVA model was the log of chitotriosidase activity at 6 months, and the independent variables included IMP dose as randomized (300 mg/day, 600 mg/day, 1200 mg/day, and 0 mg/day [for placebo]) as a continuous variable, GD type, and log of baseline chitotriosidase. Supportive analysis was conducted using the same model but with the dose actually received at Visit 3 following possible dosing adjustment based on PK assessment at Visit 2.

liver size = assay: Liver size by ultrasound, phase 2 trial in Gaucher disease type 1 or 3; type: in vivo, human; details: 6 months, 300/600/1200 mg/day, dose-trend effect p<0.05, FIG. 3
Protocol: as §1
(§2) The imaging efficacy endpoint consisted of the change in the size (centimetres) of the liver and spleen (assessed by ultrasound) at 6 months and bi-annually until trial end. Clinical GD severity endpoints (all patients): • Gaucher disease Type 1 Disease Severity Scoring System (GD1-DS3) • Modified Severity Scoring Tool (mSST)
(§3) Secondary efficacy endpoints, including change in weight and height, change in liver size, change in spleen size, and change in biomarkers (blood and CSF) relative to baseline (where appropriate) were analysed using an ANCOVA model with treatment group (dose actually received at Visit 3 following possible dosing adjustment based on PK assessment at Visit 2, or placebo) and corresponding baseline value as covariate. For the biomarker analysis, appropriate data transformation was conducted before statistical analysis, if necessary.

spleen size = assay: Spleen size by ultrasound, phase 2 trial in Gaucher disease type 1 or 3; type: in vivo, human; details: 6 months, 300/600/1200 mg/day, dose trend analysis p<0.10, FIG. 4
Protocol: as §1, §2, §3

haemoglobin = assay: Haemoglobin in patients anaemic at baseline, phase 2 trial in Gaucher disease; type: in vivo, human; details: highest dose group (1200 mg/day), time-trend analysis p<0.05, FIG. 5
Protocol: as §1
(§4) The exploratory biomarker endpoints, as measured in the blood, included: • Change* in plasma glucosylsphingosine (GlcSph) levels at 6 months and every 6 months until trial end. • Change* in haemoglobin, ferritin, and platelet levels at 6 months and every 6 months until trial end. • Change* in GBA enzyme activity (leukocytes) at 6 months and every 6 months until trial end. • Change* in serum macrophage inflammatory protein-1b (MIP-1P; cytokine for bone involvement) at 6 months and every 6 months until trial end.
as §3

Gaucher's disease type 1 = assay: Clinical GD1 severity score (GD1-DS3), phase 2 trial in Gaucher disease; type: in vivo, human; details: 6 months, statistical significance not achieved
Protocol: as §2, with “Eligible GD1 and GD3 patients were randomised into 4 groups on a 1:1:1:1 basis to receive arimoclomol 300 mg/day, arimoclomol 600 mg/day, arimoclomol 1200 mg/day, or placebo treatment (3 times daily [t.i.d] dosing). The” for “The”

[3] = test system: glycosylsphingosine (lyso-Gb1); assay: Plasma glycosylsphingosine (lyso-Gb1), phase 2 trial in Gaucher disease; type: in vivo, human; details: after 6 months, statistical significance not achieved, FIG. 6
Protocol: as §1, §4, §3

[4] = background statement; cited from earlier work

[O-][n+]1cccc(/C(Cl)=N/OC[C@H](O)CN2CCCCC2)c1 [arimoclomol, (+)-(R)—N-[2-hydroxy-3-(1-piperidinyl)-propoxy]-pyridine-1-oxide-3-carboximidoyl chloride]
Plasma exposure (AUC) [1]: dose-dependent increase in plasma exposure
Relative change in chitotriosidase activity from baseline versus placebo [2]: relative reduction in chitotriosidase activity from baseline
Relative change in chitotriosidase activity from baseline versus placebo ([2]; listed as Arimoclomol): relative reduction in serum chitotriosidase activity
Change in chitotriosidase activity across treatment groups ([2]; baseline to 6 months, 300/600/1200 mg/day vs. placebo): lower increase in arimoclomol groups vs. placebo
Liver size relative to placebo (liver size): dose-dependent effect; also recorded: Clinically meaningful dose-dependent reductions
Spleen size relative to placebo (spleen size): dose-dependent effect; also recorded: Clinically meaningful dose-dependent reductions
Haemoglobin over time (haemoglobin): time-dependent increase in haemoglobin
Clinical GD1 severity score (Gaucher's disease type 1): directional dose-dependent reduction
Change from baseline of plasma glycosylsphingosine (lyso-Gb1) [3]: trend towards a dose-dependent increase
Blood-brain barrier passage [4]: ability to cross the blood-brain barrier
